Several values for one entry are separate records, joined by “and”; a condition that tells them apart may be missing. Identical values can stand only once. Counter-ions that a name gives are not always drawn. Like-named read-outs stand apart in the source and are kept apart here.
Tests used:
DNMT1 = DNMT1 (Homo sapiens, UniProt P26358); assay: DNMT1 biochemical activity, breaklight assay and/or SPA assay
[1] = system: erythroid progenitor cells (EPCs); assay: Fetal hemoglobin (HbF) ELISA in day 7 erythroid progenitor cells; type: cell-based, human; conditions: Homo sapiens, Erythroid progenitor cell, HbF ELISA, day 7 EPCs, 5 days; read-out: EPC ELISA (pEC50 category) (converted);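 note: for fetal hemoglobin induction normalized to vehicle-treated cells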
Outline: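 HbF induction was read by anti-HbF sandwich ELISA (HRP/TMB, OD450) on lysates and normalized to vehicle-treated cells. Cells were day 7 erythroid progenitors derived from human bone marrow CD34+ cells, seeded at 1,000/well with 3 U/mL rhEPO. Compound was given for 5 days at 37 °C at final concentrations […].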

[2] = binned activity in either the breaklight or the SPA assay
[3] = binned activity in either the breaklight or the SPA assay, read-out: DNMT1 BioChemical (pIC50 category) (converted)
[4] = breaklight assay and/or SPA assay, repeated experimental runs, read-out: average pIC50 against DNMT1 (converted)

Chain of DNMT1 (P26358 whole entry, looked up): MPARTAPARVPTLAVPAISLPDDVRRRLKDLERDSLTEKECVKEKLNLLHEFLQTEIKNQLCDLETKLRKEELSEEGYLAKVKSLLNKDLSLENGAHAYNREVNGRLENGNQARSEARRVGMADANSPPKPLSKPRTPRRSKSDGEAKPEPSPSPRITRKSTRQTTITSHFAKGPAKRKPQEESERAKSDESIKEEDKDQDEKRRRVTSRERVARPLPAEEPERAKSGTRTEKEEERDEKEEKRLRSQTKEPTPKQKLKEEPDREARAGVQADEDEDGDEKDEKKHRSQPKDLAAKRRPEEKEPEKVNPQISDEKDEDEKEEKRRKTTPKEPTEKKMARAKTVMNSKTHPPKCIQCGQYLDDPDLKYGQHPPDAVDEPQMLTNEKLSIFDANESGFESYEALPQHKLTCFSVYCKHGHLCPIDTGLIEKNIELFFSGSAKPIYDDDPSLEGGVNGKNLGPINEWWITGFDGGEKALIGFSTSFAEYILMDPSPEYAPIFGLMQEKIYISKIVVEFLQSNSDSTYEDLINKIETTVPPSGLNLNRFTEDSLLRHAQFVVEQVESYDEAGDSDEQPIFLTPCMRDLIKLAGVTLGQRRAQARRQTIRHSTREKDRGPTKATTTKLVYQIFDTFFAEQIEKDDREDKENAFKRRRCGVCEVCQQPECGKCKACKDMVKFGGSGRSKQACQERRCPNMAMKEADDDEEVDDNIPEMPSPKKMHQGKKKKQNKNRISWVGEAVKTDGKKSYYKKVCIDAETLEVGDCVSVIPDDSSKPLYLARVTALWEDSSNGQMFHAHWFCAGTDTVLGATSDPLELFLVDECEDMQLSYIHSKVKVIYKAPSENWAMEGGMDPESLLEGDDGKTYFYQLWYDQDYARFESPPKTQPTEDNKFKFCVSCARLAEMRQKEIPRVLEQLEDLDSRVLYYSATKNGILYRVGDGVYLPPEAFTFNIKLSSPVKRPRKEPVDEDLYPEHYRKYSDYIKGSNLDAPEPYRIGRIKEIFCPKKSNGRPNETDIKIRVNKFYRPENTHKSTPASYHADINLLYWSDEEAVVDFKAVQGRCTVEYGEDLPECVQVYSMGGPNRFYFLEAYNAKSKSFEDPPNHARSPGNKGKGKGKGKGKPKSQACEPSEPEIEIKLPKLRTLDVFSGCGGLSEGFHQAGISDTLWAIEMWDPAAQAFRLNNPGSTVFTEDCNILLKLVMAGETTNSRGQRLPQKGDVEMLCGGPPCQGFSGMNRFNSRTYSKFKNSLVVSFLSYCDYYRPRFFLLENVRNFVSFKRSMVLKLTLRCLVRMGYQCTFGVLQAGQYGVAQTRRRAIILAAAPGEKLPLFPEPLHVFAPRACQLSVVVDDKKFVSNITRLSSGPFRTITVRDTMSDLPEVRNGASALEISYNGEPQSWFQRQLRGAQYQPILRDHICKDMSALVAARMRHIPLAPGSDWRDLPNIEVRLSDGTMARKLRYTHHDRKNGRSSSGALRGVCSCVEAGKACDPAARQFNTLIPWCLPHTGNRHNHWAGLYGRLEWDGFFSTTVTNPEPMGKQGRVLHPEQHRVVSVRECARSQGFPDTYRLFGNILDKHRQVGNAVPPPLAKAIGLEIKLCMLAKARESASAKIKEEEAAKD

SMILES	DNMT1 BioChemical (pIC50 category) (DNMT1; [2])	EC50 [1]	IC50 (DNMT1; [3])	IC50 (DNMT1; [4])
CCc1c(C#N)c(SCc2ccc(N(C)S(C)(=O)=O)cc2)nc(N2CCC(NC(=O)[C@@H](C)N)CC2)c1C#N [Example 584, (R)-2-amino-N-(1-(3,5-dicyano-4-ethyl-6-((4-(N-methylmethylsulfonamido)benzyl)thio)pyridin-2-yl)piperidin-4-yl)propanamide]	D (Category D: ≥6.5)	< 316 nM		
CCC(=O)NCc1ccc(CSc2nc(N3CCCN(C)CC3)c(C#N)c(CC)c2C#N)cc1 [Example 87, N-(4-(((3,5-Dicyano-4-ethyl-6-(4-methyl-1,4-diazepan-1-yl)pyridin-2-yl)thio)methyl)benzyl)propionamide]	D (Category D: ≥6.5)	316 to 1000 nM		
CCc1c(C#N)c(C)nc(SC(C(N)=O)c2ccccc2)c1C#N (stereo not drawn) [Example 283, 2-((3,5-Dicyano-4-ethyl-6-methylpyridin-2-yl)thio)-2-phenylacetamide]		1000 to 31600 nM	316 to 1000 nM	316 to 1000 nM and 631 nM
CCc1c(C#N)c(SC(C(N)=O)c2ccccc2)nc(N2CCCN(CC(=O)OC)CC2)c1C#N (stereo not drawn) [Example 108, Methyl 2-[4-(6-{[carbamoyl(phenyl)methyl]sulfanyl}-3,5-dicyano-4-ethylpyridin-2-yl)-1,4-diazepan-1-yl]acetate]		316 to 1000 nM	1000 to 31600 nM	≥ 1000 nM
CCc1c(C#N)c(SCc2ccc(N(C)S(C)(=O)=O)cc2)nc(N2CCOC(CN)C2)c1C#N (stereo not drawn) [Example 591, N-(4-(((6-(2-(aminomethyl)morpholino)-3,5-dicyano-4-ethylpyridin-2-yl)thio)methyl)phenyl)-N-methylmethanesulfonamide]	D (Category D: ≥6.5)	< 316 nM		
CN1CCCN(c2nc(SC(C(N)=O)c3ccccc3)c(C#N)c(-c3ccco3)c2C#N)CC1 (stereo not drawn) [Example 135, 2-((3,5-dicyano-4-(furan-2-yl)-6-(4-methyl-1,4-diazepan-1-yl)pyridin-2-yl)thio)-2-phenylacetamide]		1000 to 31600 nM	316 to 1000 nM	
CCc1c(C#N)c(SCc2ccc(CNC(=O)[C@H](C)N)cc2)nc(N2CCCN(C)CC2)c1C#N [Example 97, (S)-2-Amino-N-(4-(((3,5-dicyano-4-ethyl-6-(4-methyl-1,4-diazepan-1-yl)pyridin-2-yl)thio)methyl)benzyl)propanamide]	D (Category D: ≥6.5)	> 31600 nM		
CCc1c(C#N)c(SC(C(N)=O)c2ccccc2)nc(N(C)CCNC2(C)CC2)c1C#N (stereo not drawn) [Example 489, 2-(3,5-dicyano-4-ethyl-6-(methyl(2-(1-methylcyclopropylamino)ethyl)amino)pyridin-2-ylthio)-2-phenylacetamide]	D (Category D: ≥6.5)	< 316 nM		
CCc1c(C#N)c(SCc2ccc(CN)cc2)nc(N(C)C)c1C#N [Example 272, 2-((4-(Aminomethyl)benzyl)thio)-6-(dimethylamino)-4-ethylpyridine-3,5-dicarbonitrile, Hydrochloride]		> 31600 nM	1000 to 31600 nM	
N#Cc1c(SC(C(N)=O)c2ccccc2)nc(N2CC(NC(=O)CN)C2)c(C#N)c1C1CC1 (stereo not drawn) [Example 610, 2-amino-N-(1-(6-((2-amino-2-oxo-1-phenylethyl)thio)-3,5-dicyano-4-cyclopropylpyridin-2-yl)azetidin-3-yl)acetamide]	D (Category D: ≥6.5)	1000 to 31600 nM		
CCc1c(C#N)c(SCc2ccc(N(C)S(C)(=O)=O)cc2)nc(N2CCOC(CN(C)C)C2)c1C#N (stereo not drawn) [Example 571, N-(4-(((3,5-dicyano-6-(2-((dimethylamino)methyl)morpholino)-4-ethylpyridin-2-yl)thio)methyl)phenyl)-N-methylmethanesulfonamide]	D (Category D: ≥6.5)	< 316 nM		
CCc1c(C#N)c(SC(C(N)=O)c2ccccc2)nc(N2CCNCC(F)C2)c1C#N (stereo not drawn) [Example 381, 2-((3,5-Dicyano-4-ethyl-6-(16-fluoro-1,4-diazepan-1-yl)pyridin-2-yl)thio)-2-phenylacetamide]		1000 to 31600 nM	316 to 1000 nM	
CC1CN(c2nc(SC(C(N)=O)c3ccccc3)c(C#N)c(C3CC3)c2C#N)CCN1 (stereo not drawn) [Example 19, 2-((3,5-Dicyano-4-cyclopropyl-6-(3-methylpiperazin-1-yl)pyridin-2-yl)thio)-2-phenylacetamide]		< 316 nM	316 to 1000 nM	
CCc1c(C#N)c(SC(C(N)=O)c2ccccc2)nc(N2CCN(Cc3cn[nH]c3)CC2)c1C#N (stereo not drawn) [Example 187, 2-((6-(4-((1H-Pyrazol-4-yl)methyl)piperazin-1-yl)-3,5-dicyano-4-ethylpyridin-2-yl)thio)-2-phenylacetamide]		1000 to 31600 nM	316 to 1000 nM	
CCc1nc(SC(C(N)=O)c2ccccc2)c(C#N)c(CC)c1C#N (stereo not drawn) [Example 351]		> 31600 nM	316 to 1000 nM	
CCc1c(C#N)c(SC(C(N)=O)c2ccc(F)nc2)nc(N2CCCN(C)CC2)c1C#N (stereo not drawn) [Example 228]		316 to 1000 nM	1000 to 31600 nM	
CCc1c(C#N)c(SC(C(N)=O)c2ccccc2)nc(N(C)CCNCC(C)(C)C)c1C#N (stereo not drawn) [Example 488, 2-((3,5-dicyano-4-ethyl-6-(methyl(2-(neopentylamino)ethyl)amino)pyridin-2-yl)thio)-2-phenylacetamide]	D (Category D: ≥6.5)	< 316 nM		
CCc1c(C#N)c(SC(C(N)=O)c2ccc(CC(N)=O)cc2)nc(N2CCCN(C)CC2)c1C#N (stereo not drawn) [Example 400, 2-(4-(2-Amino-2-oxoethyl)phenyl)-2-(3,5-dicyano-4-ethyl-6-(4-methyl-1,4-diazepan-1-yl)pyridin-2-ylthio)acetamide]	D (Category D: ≥6.5)	1000 to 31600 nM		
CCc1c(C#N)c(SCc2ccc(N(C)S(C)(=O)=O)cc2)nc(N(C)CCN2CCCCC2)c1C#N [Example 577, N-(4-(((3,5-dicyano-4-ethyl-6-(methyl(2-(piperidin-1-yl)ethyl)amino)pyridin-2-yl)thio)methyl)phenyl)-N-methylmethanesulfonamide]	D (Category D: ≥6.5)	< 316 nM		
CCc1c(C#N)c(S[C@H](C(N)=O)c2ccccc2)nc(N2CC(N)C2)c1C#N (stereo in doubt) [Example 635, 2-((6-(3-aminoazetidin-1-yl)-3,5-dicyano-4-ethylpyridin-2-yl)thio)-2-phenylacetamide]	D (Category D: ≥6.5)	316 to 1000 nM		
N#Cc1c(SC(C(N)=O)c2ccccc2)nc(N2CC(NC(=O)C3(N)COC3)C2)c(C#N)c1C1CC1 (stereo not drawn) [Example 680, 3-amino-N-(1-(6-((2-amino-2-oxo-1-phenylethyl)thio)-3,5-dicyano-4-cyclopropylpyridin-2-yl)azetidin-3-yl)oxetane-3-carboxamide]		1000 to 31600 nM	< 316 nM	
CCc1c(C#N)c(SC(C(N)=O)c2ccccc2)nc(N2CCC3(COC3)C2)c1C#N (stereo not drawn) [Example 161, 2-((3,5-Dicyano-4-ethyl-6-(2-oxa-6-azaspiro[3.4]octan-6-yl)pyridin-2-yl)thio)-2-phenylacetamide]		1000 to 31600 nM	316 to 1000 nM	
CCc1c(C#N)c(S[C@@H](C(N)=O)c2ccccc2)nc(N(C)CC(N)=O)c1C#N (single isomer, unassigned) [Example 413, 2-((6-((2-amino-2-oxoethyl)(methyl)amino)-3,5-dicyano-4-ethylpyridin-2-yl)thio)-2-phenylacetamide]		< 316 nM	< 316 nM	
